This passage reports IC50 results from patent US20130217664A1, “NOVEL COMPOUNDS USEFUL FOR THE TREATMENT OF DEGENERATIVE AND INFLAMMATORY DISEASES” (priority 2012, published 2013).

Molecules are shown by their SMILES.

Common to all, as to type: biochemical
Assay [1] concerns the target T1, human TYK2 (Homo sapiens, UniProt P29597).
T1 construct: catalytic domain (amino acids 871-1187; catalog number 08-147); purchased Carna Biosciences 08-147
T1 sequence (P29597 871-1187): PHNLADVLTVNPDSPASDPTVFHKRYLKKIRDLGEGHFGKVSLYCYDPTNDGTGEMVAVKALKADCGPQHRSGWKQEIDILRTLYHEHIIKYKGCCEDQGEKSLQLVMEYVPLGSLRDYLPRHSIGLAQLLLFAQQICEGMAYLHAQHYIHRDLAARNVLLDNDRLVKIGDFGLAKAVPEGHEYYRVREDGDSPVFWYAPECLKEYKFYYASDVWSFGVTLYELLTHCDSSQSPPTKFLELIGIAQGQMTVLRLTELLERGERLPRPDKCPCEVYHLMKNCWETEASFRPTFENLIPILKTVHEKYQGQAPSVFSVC
Briefly: TYK2 inhibition assay. Particulars: recombinant human TYK2 catalytic domain, polyGT substrate. As for the experimental part: 1.4 TYK2 Inhibition Assay
After 90 min at 30° C., reactions were stopped by adding 25 μL/well of 150 mM phosphoric acid. […] Plates were washed 6 times with 300 μL per well of a 75 mM phosphoric acid solution and the bottom of the plates was sealed. 40 μL/well of Microscint-20 was added, the top of the plates was sealed and readout was performed using the Topcount (Perkin Elmer). Kinase activity was calculated by subtracting counts per min (cpm) obtained in the presence of a positive control inhibitor (10 μM staurosporine) from cpm obtained in the presence of vehicle. The ability of a test compound to inhibit this activity was determined as:
(§1) Percentage inhibition=((cpm determined for sample with test compound present−cpm determined for sample with positive control inhibitor)divided by(cpm determined in the presence of vehicle−cpm determined for sample with positive control inhibitor))*100.
Dose dilution series were prepared for the compounds enabling the testing of dose-response effects in the TYK2 assay and the calculation of the IC50 for each compound.

The target in assay [2] is T2, human JAK3 (Homo sapiens, UniProt P52333).
T2 construct: catalytic domain (amino acids 781-1124; catalog number PV3855); purchased Invitrogen PV3855
T2 sequence (P52333 781-1124): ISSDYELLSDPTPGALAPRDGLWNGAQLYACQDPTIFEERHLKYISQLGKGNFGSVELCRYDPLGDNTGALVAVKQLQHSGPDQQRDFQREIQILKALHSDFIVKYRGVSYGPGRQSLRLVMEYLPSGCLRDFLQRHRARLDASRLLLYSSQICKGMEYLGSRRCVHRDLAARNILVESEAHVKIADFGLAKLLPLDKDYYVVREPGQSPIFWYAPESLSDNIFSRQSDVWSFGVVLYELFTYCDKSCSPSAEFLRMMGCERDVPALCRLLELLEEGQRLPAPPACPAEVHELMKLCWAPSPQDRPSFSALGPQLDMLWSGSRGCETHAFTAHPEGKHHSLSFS
The assay is described as follows: JAK3 inhibition assay. The note with it: recombinant human JAK3 catalytic domain; polyGT substrate. As for the experimental part:
1.3 JAK3 Inhibition Assay
0.5 ng JAK3 protein was incubated with 2.5 μg polyGT substrate (Sigma catalog number P0275) in kinase reaction buffer (25 mM Tris pH 7.5, 0.5 mM EGTA, 10 mM MgCl2, 2.5 mM DTT, 0.5 mM Na3VO4, 5 mM b-glycerolphosphate, 0.01% Triton X-100, 1 μM non-radioactive ATP, 0.25 μCi 33P-gamma-ATP (GE Healthcare, catalog number AH9968) final concentrations) with or without 5 μL containing test compound or vehicle (DMSO, 1% final concentration), in a total volume of 25 μL, in a polypropylene 96-well plate (Greiner, V-bottom). After 45 min at 30° C., reactions were stopped by adding 25 μL/well of 150 mM phosphoric acid. […] Plates were washed 6 times with 300 μL per well of a 75 mM phosphoric acid solution and the bottom of the plates was sealed. 40 μL/well of Microscint-20 was added, the top of the plates was sealed and readout was performed using the Topcount (Perkin Elmer). Kinase activity was calculated by subtracting counts per min (cpm) obtained in the presence of a positive control inhibitor (10 μM staurosporine) from cpm obtained in the presence of vehicle. The ability of a test compound to inhibit this activity was determined as:
as §1
Dose dilution series were prepared for the compounds enabling the testing of dose-response effects in the JAK3 assay and the calculation of the IC50 for each compound. Each compound was routinely tested at concentration of 20 μM followed by a 1/5 serial dilution, 10 points in a final concentration of 1% DMSO.

The target in assay [3] is T3, human JAK1 (Homo sapiens, UniProt P23458).
T3 construct: catalytic domain, amino acids 866-1154; catalog number PV4774; purchased Invitrogen PV4774
T3 sequence (P23458 866-1154): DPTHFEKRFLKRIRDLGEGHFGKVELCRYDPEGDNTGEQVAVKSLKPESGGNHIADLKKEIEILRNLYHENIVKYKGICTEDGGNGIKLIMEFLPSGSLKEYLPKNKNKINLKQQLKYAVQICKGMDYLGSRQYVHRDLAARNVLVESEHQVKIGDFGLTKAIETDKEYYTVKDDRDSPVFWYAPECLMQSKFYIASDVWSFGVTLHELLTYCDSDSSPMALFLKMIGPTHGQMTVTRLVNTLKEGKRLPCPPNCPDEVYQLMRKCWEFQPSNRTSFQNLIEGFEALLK
The assay is described as follows: JAK1 inhibition assay (polyGT substrate / Ulight-JAK1 peptide). Particulars: recombinant human JAK1 catalytic domain; polyGT or Ulight-JAK1 peptide assay. How it is done: 1.1 JAK1 Inhibition Assay
1.1.1 JAK1 Assay polyGT Substrate
After 45 min at 30° C., reactions are stopped by adding of 25 μL/well of 150 mM phosphoric acid. […] Plates are washed 6 times with 300 μL per well of a 75 mM phosphoric acid solution and the bottom of the plates is sealed. 40 μL/well of Microscint-20 is added, the top of the plates is sealed and readout is performed using the Topcount (Perkin Elmer). Kinase activity is calculated by subtracting counts per min (cpm) obtained in the presence of a positive control inhibitor (10 μM staurosporine) from cpm obtained in the presence of vehicle. The ability of a test compound to inhibit this activity is determined as:
as §1
Dose dilution series are prepared for the compounds enabling the testing of dose-response effects in the JAK1 assay and the calculation of the IC50 for each compound.
1.1.2 JAK1 Ulight-JAK1 Peptide Assay
After 60 min at room temperature, reactions were stopped by adding 20 μL/well of detection mixture (1× detection buffer (Perkin Elmer, catalog number CR97-100C), 0.5 nM Europium-anti-phosphotyrosine (PT66) (Perkin Elmer, catalog number AD0068), 10 mM EDTA). […] Kinase activity was calculated by subtracting relative fluorescence units (RFU) obtained in the presence of a positive control inhibitor (10 μM staurosporine) from RFU obtained in the presence of vehicle. The ability of a test compound to inhibit this activity was determined as:
Percentage inhibition=((RFU determined for sample with test compound present−RFU determined for sample with positive control inhibitor)divided by(RFU determined in the presence of vehicle−RFU determined for sample with positive control inhibitor))*100.
Dose dilution series were prepared for the compounds enabling the testing of dose-response effects in the JAK1 assay and the calculation of the IC50 for the compound. Each compound is routinely tested at concentration of 20 μM followed by a 1/5 serial dilution, 10 points in a final concentration of 1% DMSO. […] The data are expressed as the average IC50 from the assays±standard error of the mean.

In general, IC50 refers to the concentration at which inhibition is half-maximal. For `CCc1ccccc1N(C)c1cc2c(cn1)ncn2C` [Compound 16, (2-Ethyl-phenyl)-methyl-(1-methyl-1H-imidazo[4,5-c]pyridin-6-yl)-amine], the IC50 in assay [1] fell in the range of 101 to 500 nM; in assay [2], 501 to 1000 nM.

With `CCc1cc(-c2ccc(OC)nc2)ccc1N(C)c1cc2c(cn1)ncn2C` [Compound 130, N-(2-ethyl-4-(6-methoxypyridin-3-yl)phenyl)-N,1-dimethyl-1H-imidazo[4,5-c]pyridin-6-amine], the concentration for half-maximal inhibition (IC50) was 0.01 to 100 nM in assay [1], 0.01 to 100 nM in assay [3] and 101 to 500 nM in assay [2].

In the case of `CCc1cc(C(=O)NCC(C)(C)O)ccc1N(C)c1cc2c(cn1)ncn2C` [Compound 161, 3-ethyl-N-(2-hydroxy-2-methylpropyl)-4-(methyl(1-methyl-1H-imidazo[4,5-c]pyridin-6-yl)amino)benzamide], the IC50 in assay [1] is greater than 1000 nM; in assay [3] it was 101 to 500 nM; in assay [2] it was greater than 1000 nM.

In the case of `CCc1cc(-c2ccc(C#N)cc2)ccc1N(C)c1cc2c(cn1)ncn2C` [Compound 162, 3′-ethyl-4′-(methyl(1-methyl-1H-imidazo[4,5-c]pyridin-6-yl)amino)biphenyl-4-carbonitrile], the half-inhibitory concentration (IC50) was 0.01 to 100 nM in assay [1], 0.01 to 100 nM in assay [3] and 101 to 500 nM in assay [2].

As to `CCc1cc(C(=O)NCC2CCCCN2C)ccc1N(C)c1cc2c(cn1)ncn2C` (centres unmarked) [Compound 165, 3-ethyl-4-(methyl(1-methyl-1H-imidazo[4,5-c]pyridin-6-yl)amino)-N-((1-methylpiperidin-2-yl)methyl)benzamide], the half-inhibitory concentration (IC50) in assay [1] was greater than 1000 nM; in assay [3], 101 to 500 nM; in assay [2], greater than 1000 nM.

As for `CCc1cc(C(=O)NC2(C#N)CCN(C)CC2)ccc1N(C)c1cc2c(cn1)ncn2C` [Compound 166, N-(4-cyano-1-methylpiperidin-4-yl)-3-ethyl-4-(methyl(1-methyl-1H-imidazo[4,5-c]pyridin-6-yl)amino)benzamide], the concentration for half-maximal inhibition (IC50) in assay [1] is greater than 1000 nM; in assay [3], 0.01 to 100 nM; in assay [2], greater than 1000 nM.

Regarding `CCc1cc(C(=O)NC#N)ccc1N(C)c1cc2c(cn1)ncn2C` [Compound 179, N-Cyano-3-ethyl-4-(methyl(1-methyl-1H-imidazo[4,5-c]pyridin-6-yl)amino)benzamide], the IC50 in assay [1] fell in the range of 0.01 to 100 nM; in assay [3] it was 0.01 to 100 nM; in assay [2], 101 to 500 nM.

As to `CCc1cc(O[C@H]2CCN(S(C)(=O)=O)C2)ccc1N(C)c1cc2c(cn1)ncn2C` [Compound 260, (S)-N-(2-ethyl-4-(1-(methylsulfonyl)pyrrolidin-3-yloxy)phenyl)-N,1-dimethyl-1H-imidazo[4,5-c]pyridin-6-amine], the IC50 in assay [1] lay within 101 to 500 nM; in assay [3], 0.01 to 100 nM; in assay [2], 101 to 500 nM.

In the case of `COc1cc(-c2cccs2)ncc1N(C)c1cc2c(cn1)ncn2C` [Compound 264], the IC50 is 0.01 to 100 nM in assay [1], 0.01 to 100 nM in assay [3] and 101 to 500 nM in assay [2].

As to `CCc1cc(-c2ccsc2)ncc1N(C)c1cc2c(cn1)ncn2C` [Compound 288, (4-Ethyl-6-thiophen-3-yl-pyridin-3-yl)-methyl-(1-methyl-1H-imidazo[4,5-c]pyridin-6-yl)-amine], the half-maximal inhibitory concentration (IC50) in assay [1], in assay [3] and in assay [2] was 0.01 to 100 nM each time.

In the case of `CCc1cc(-c2cccs2)ncc1N(C)c1cc2c(cn1)ncn2C` [Compound 289], the IC50 in assay [1], in assay [3] and in assay [2] was 0.01 to 100 nM throughout.

As to `CCc1cc(C2CN(S(C)(=O)=O)C2)ccc1N(C)c1cc2c(cn1)ncn2C` [Compound 290, [2-Ethyl-4-(1-methanesulfonyl-azetidin-3-yl)-phenyl]-methyl-(1-methyl-1H-imidazo[4,5-c]pyridin-6-yl)-amine], the IC50 in assay [1], in assay [3] and in assay [2] was 0.01 to 100 nM each time.

With `CCc1cc(CNC2CCN(C(=O)OC(C)(C)C)C2)ccc1N(C)c1cc2c(cn1)ncn2C` (centres unmarked) [Compound 291, 3-{3-Ethyl-4-[methyl-(1-methyl-1H-imidazo[4,5-c]pyridin-6-yl)-amino]-benzylamino}-pyrrolidine-1-carboxylic acid tert-butyl ester], the figures for the IC50 in assay [1], in assay [3] and in assay [2] were 101 to 500 nM, 0.01 to 100 nM and greater than 1000 nM, respectively.

Turning to `CCc1cc(CN(C)S(=O)(=O)C2CC2)ccc1N(C)c1cc2c(cn1)ncn2C` [Compound 292, Cyclopropanesulfonic acid {3-ethyl-4-[methyl-(1-methyl-1H-imidazo[4,5-c]pyridin-6-yl)-amino]-benzyl}-methyl-amide], the IC50 fell in the range of 101 to 500 nM in assay [1], 0.01 to 100 nM in assay [3] and 0.01 to 100 nM in assay [2].

Regarding `CCc1cc(CNC2CCNC2)ccc1N(C)c1cc2c(cn1)ncn2C` (centres unmarked) [Compound 293, [2-Ethyl-4-(pyrrolidin-3-ylaminomethyl)-phenyl]-methyl-(1-methyl-1H-imidazo[4,5-d]pyridin-6-yl)-amine], the concentration for half-maximal inhibition (IC50) in assay [1] is greater than 1000 nM; in assay [3], 0.01 to 100 nM; in assay [2], greater than 1000 nM.

Consider `CCc1cc(CN(C)S(=O)(=O)CC)ccc1N(C)c1cc2c(cn1)ncn2C` [Compound 294, Ethanesulfonic acid {3-ethyl-4-[methyl-(1-methyl-1H-imidazo[4,5-c]pyridin-6-yl)-amino]-benzyl}-methyl-amide], for which the half-inhibitory concentration (IC50) in assay [1], in assay [3] and in assay [2] was 0.01 to 100 nM in each case.
